The record followed here is patent US10961228B2, “JAK1 selective inhibitors” (AstraZeneca AB, priority 2017, dated 2021).

In general, pIC50 refers to the IC50 on a negative log10 scale, so that one unit is a factor of ten.

Each structure is given as a SMILES string. pIC50: −log10 of the molar value.

In data set [1] the target is recombinant JAK1 (amino acids 866-1154) (Homo sapiens (Human), UniProt P23458). Description: Enzyme inhibition studies, JAK1 (5 mM ATP, Caliper). Format: biochemical. The essentials: (§1)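 N-terminal GST-fused kinase domains from insect cells, run at 5 mM ATP with inhibitor at 30, 3, 0.3, 0.03, 0.003 and 0 μM final.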
Chain of recombinant JAK1 (amino acids 866-1154) (P23458 866-1154): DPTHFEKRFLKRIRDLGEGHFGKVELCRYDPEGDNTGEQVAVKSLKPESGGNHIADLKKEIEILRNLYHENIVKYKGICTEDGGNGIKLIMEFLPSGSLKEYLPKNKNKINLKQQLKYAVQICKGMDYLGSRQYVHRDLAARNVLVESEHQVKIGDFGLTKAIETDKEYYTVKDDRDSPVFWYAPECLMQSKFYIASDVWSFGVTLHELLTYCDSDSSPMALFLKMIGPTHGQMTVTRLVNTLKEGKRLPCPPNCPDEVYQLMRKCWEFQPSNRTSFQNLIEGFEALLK
Data set [2] has as its target recombinant JAK3 (amino acids 781-1124) (Homo sapiens (Human), UniProt P52333). Description: Enzyme inhibition studies, JAK3 (5 mM ATP, Caliper). Format: biochemical. The essentials: as §1
Data set [3] in a line: Plasma drug concentration by LC-MSMS at termination of alopecia areata study. Format: in vivo. The conditions noted are these: 1-2 h after last oral dose at 12.5 mg/kg BW, C3H/HeJ mice. The protocol: Blood was sampled from behind the eye in EDTA-coated test tubes (Multivette 300, Sarstedt) and kept on ice. Plasma was obtained by centrifugation (4° C., 4000 G, 5 min) and 50 μL transferred to a 96-well NUNC plate and stored at −20° C. until analyzed with regards to drug concentration by LC-MSMS.

Data set [4] deals with OVA-challenged Brown Norway rat. The data set is described as follows: OVA lung inflammation model, eosinophils in broncho alveolar lavage. It is filed as in vivo. The conditions noted are these: for reduction of eosinophils in BAL: inhaled DPI, vs OVA/OVA group 3. The procedure: Brown Norway rats were sensitised and challenged with chicken ovary albumin (OVA) (Clinical and Experimental Allergy, 37 (2007) 973-988). After inhaling an amount of micronized compound within the scope of the present disclosure, the reduction in airway inflammation in the lung of OVA-challenged Brown Norway rat was measured as % reduction of eosinophils in broncho alveolar lavage (BAL) compared to challenged, but untreated rat using the following protocol. As the model control, an i.t. over dose (2*300 μg/kg) of the model reference compound, Budesonide, was used. 74 animals were divided into 8 experimental groups and treated as follows: • Group 1 (Saline/Saline/Air), n=6—Sham (saline) sensitisation at Day0 (S1) and Day7 (S2) and sham (saline) challenged at Day14 (P1). Treatment room air • Group 2 (OVA/Saline/Lactose), n=8—Sensitised at Day0 (S1) and Day7 (S2) with Al(OH)3/OVA mixture followed by the i.t. sham (saline) challenge at Day14 (P1). Treatment DPI Lactose. • Group 3 (OVA/OVA/Lactose), n=12—Sensitised at Day0 (S1) and Day7 (S2) with Al(OH)3/OVA mixture followed by the i.t. OVA challenge at Day14 (P1). […] Treatment i.t. with Budesonide (model reference compound) at 2×300 μg/kg Day14. Twice daily. Prior to start of first sensitisation (S1), the body weight (BW) was recorded and all rats were tail marked with the identification number. The BW was additionally recorded prior to S2 and prior to the termination point (D15). All of the animals' BAL was determined. At the time of termination, the performer(s) (investigator) were blinded to the status of the individual rats, The rats where subcutaneously (s.c.) injected with a mixture of OVA/Al(OH)3 (100 μg OVA:100 mg Alum in 1 ml saline/rat), and intraperitoneally (i.p.) injected with 0.5 ml/rat of B. Pertussis toxin (0.1 μg/ml) at Day 0 and Day 7. Sham sensitisation was performed by s.c. and i.p. injections of isotonic saline with the same volume and strategy. Each exposure system consisted of a flow-past exposure inhalation chamber, rat restraining tubes and a Modified Wright Dust Feed mechanism. Measurements of the aerosol concentration in the inhalation chamber for each dose level was performed by filter sampling at one of the inhalation ports (AP40, 47 mm, Millipore). […] Rats from Group 2 and 3 were exposed to lactose in the restraining tube (Battelle chambers). Target inhaled doses (μg/kg) were calculated assuming exposure duration of 2-10 minutes and a body weight of 250 g using the following formula: The rats were weighed the day prior to OVA challenge. At challenge the rats were anaesthetised with Isoflurane mixture (air and 4% isoflurane) put in supine position with 30-40° angle and instilled with vehicle or compound. This intra-tracheal instillation was performed by using a modified metal cannula with bolus-bulb on the end. Rats were placed in. cages in a supine position with a head up until regaining consciousness. The reference compound was administered twice daily with the second daily administration 6 hours post the first daily administration. Instillation volume: 0.25 mL/rat. Five minutes (5′) before OVA challenge, blood was collected (0.2 ml) from the tongue vein and plasma (60 ul/well) was collected on 96-deepwell plate. The provocation occurred at Day14 (P1) and was applied 2 hours after compound administration. The rats were anaesthetized with Isoflurane mixture (air and 4% isoflurane) put in supine position with 30-40° angle and instilled with the isotonic saline or OVA (0.1 mg/ml). The intra-tracheal instillation was performed. by using a modified metal cannula with bolus-bulb on the end. Rats were placed in cages in a supine position with a head up until regaining consciousness. Sham challenge was performed by i.t. instillation of isotonic saline with the same volume and strategy. Instillation volume: 0.25 ml/rat. At 22 hours post OVA challenge (P1), rats were euthanized with an intraperitoneal injection of 1 ml pentobarbital (50 mg/ml). […]

Chain of recombinant JAK3 (amino acids 781-1124) (P52333 781-1124): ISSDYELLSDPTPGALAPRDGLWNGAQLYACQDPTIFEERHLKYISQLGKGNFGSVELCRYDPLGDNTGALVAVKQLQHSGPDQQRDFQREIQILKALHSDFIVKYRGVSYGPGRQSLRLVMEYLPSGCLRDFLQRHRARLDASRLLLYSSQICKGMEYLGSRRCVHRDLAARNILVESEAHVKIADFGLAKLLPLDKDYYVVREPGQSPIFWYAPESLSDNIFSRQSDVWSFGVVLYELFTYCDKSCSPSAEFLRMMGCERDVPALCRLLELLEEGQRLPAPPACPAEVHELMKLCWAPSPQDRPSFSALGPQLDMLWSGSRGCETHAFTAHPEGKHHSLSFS

As to `COC[C@H](C(=O)Nc1cccc2c(-c3nc(Nc4cccc(S(C)(=O)=O)c4F)ncc3F)c[nH]c12)N1CCN(C)CC1` [Example 35, (R)-N-(3-(5-fluoro-2-(2-fluoro-3-(methylsulfonyl)phenylamino)pyrimidin-4-yl)-1H-indol-7-yl)-3-methoxy-2-(4-methylpiperazin-1-yl)propanamide], the negative logarithm of the IC50 (pIC50) in data set [1] was over 8.52; in data set [2], under 4.52. The “mean plasma exposure (total concentration)” value in data set [3] is listed as 338 nM. In data set [4] (compared to OVA control (group 3), plateau from the 0.6 μg/kg dose), the “max inhibition of eosinophils” value turned out to be 68%. Further, the “reduction of eosinophils in BAL” value was 7% in data set [4] (lung dose 0.08 μg/kg, not significant); 28% in data set [4] (lung dose 0.11 μg/kg, not significant); 68% in data set [4] (lung dose 0.6 μg/kg, p<0.01); 61% in data set [4] (lung dose 4.76 μg/kg, p<0.01).
